Results on twelve molecules are retold here after patent US7019023B2, “Benzothiepine 1, 1-dioxide derivatives, a process for their preparation, pharmaceuticals comprising these compounds, and their use” (Aventis Pharma Deutschland GmbH, priority 1998, dated 2006).

The assay relates to bile acid transport in the ileum and the fecal excretion of bile acids. Briefly: ED200 excretion: fecal excretion of 14C-taurocholate in the rat after oral administration twice daily. In kind it is in vivo. The conditions noted are these: twice daily for one day, male Wistar rats, dose which increases fecal excretion of 14C taurocholic acid to 200% of control, diastereomer mixture unless stated; for ED (200% of control): Rattus norvegicus, po, 24 h; for ED200 excretion: p.o. As for the experimental part:
The biological testing of the compounds according to the invention was carried out by determination of the ED200 excretion. This testing investigates the action of the compounds according to the invention on the bile acid transport in the ileum and the fecal excretion of bile acids in the rat after oral administration twice daily. The diastereomer mixtures of the compounds were tested.
The following recipe was used for the formulation of an aqueous solution:
the substances were dissolved in adequate volumes of an aqueous solution comprising Solutol (=polyethylene glycol […] hydroxystearate; BASF, Ludwigshafen, Germany; Batch No. 1763), so that a final concentration of 5% of Solutol is present in the aqueous solution. The solutions/suspensions were administered orally in a dose of 5 ml/kg. 2) Experimental Conditions
Male Wistar rats (Kastengrund, Hoechst AG, weight range 250–350 g) were kept in groups of 6 animals each and received a standard feed mixture (Altromin, Lage, Germany) from 10 days before the start of treatment (day 1) with a reversed day/night rhythm (4.00–16.00 dark, 16.00–4.00 light). Three days before the start of the experiment (day 0), the animals were divided into groups of 4 animals each.
After intravenous or subcutaneous administration of 5 μCi of ^14C-taurocholate per rat (day 0), the vehicles or test substances were given at 7.00–8.00 and at 15.00–16.00 on the following day (day 1) (treatment for one day).
Stool samples for the analysis of C-taurocholate were taken every 24 hours directly after the administration of the morning dose. The feces were weighed, stored at −18° C. and later suspended in 100 ml of demineralized water and homogenized (Ultra Turrax, Janke & Kunkel, IKA-Werk). Aliquot parts (0.5 g) were weighed and combusted on combustion lids (Combusto Cones, Canberra Packard) in a combustion apparatus (Tri Carb® 307 combuster Canberra Packard GmbH, Frankfurt am Main, Germany). The resulting ^14CO2 was absorbed with Carbo-Sorb® (Canberra Packard). The following ^14C radioactivity measurements were determined after addition of the scintillator (Perma-Fluor complete scintillation cocktail No. 6013187, Packard) to the samples with the aid of liquid scintillation counting (LSC). The fecal excretion of ^14C-taurocholic acid was calculated as a cumulative and/or percentage residual radioactivity (see below).
The fecal excretion of ^14C-TCA was determined in combusted aliquot parts of the stool samples taken at 24-hour intervals, calculated as the “cumulative percentage” of the administered activity and expressed as a % of the residual activity (=remaining activity, i.e. administered activity minus the already excreted activity). For the calculation of the dose-response curves, the excretion of ^14C taurocholic acid was expressed as a percentage proportion of the corresponding values of the control group (treated with vehicle). The ED200, i.e. the dose which increases the fecal excretion of ^14C taurocholic acid to 200% of the control group, is calculated from a sigmoid or linear dose-response curve by interpolation. The calculated ED200 corresponds to a dose which doubles the fecal excretion of bile acids.

Regarding `CCCCC1(CCCC)CS(=O)(=O)c2ccc(N(C)C)cc2[C@@H](c2cccc(NC(=O)[C@H](OC(C)=O)[C@@H](OC(C)=O)[C@H](OC(C)=O)[C@@H](COC(C)=O)OC(C)=O)c2)[C@H]1O` [Example 6], the ED (200% of control) was 0.04 mg/kg/day. Still for that read-out and setting: for `CCCC[C@]1(CC)CS(=O)(=O)c2ccc(N(C)C)cc2[C@@H](c2cccc(NC(=O)[C@H](OC(C)=O)[C@@H](OC(C)=O)[C@H](OC(C)=O)[C@@H](COC(C)=O)OC(C)=O)c2)[C@H]1O` [Example 2] the value was 0.008 mg/kg/day. Same read-out and setting: the figure for `CCCC[C@]1(CC)CS(=O)(=O)c2ccc(N(C)C)cc2[C@@H](c2cccc(N)c2)[C@H]1O` [Comparison Example 1, reference compound] is 0.8 mg/kg/day. Same read-out and setting: for `CCCC[C@]1(CC)CS(=O)(=O)c2ccc(N(C)C)cc2[C@@H](c2cccc(NC(=O)CCCCBr)c2)[C@H]1O` [Comparison Example 2, reference compound] the value was 1 mg/kg/day. As to `CCCC[C@]1(CC)CS(=O)(=O)c2ccc(N(C)C)cc2[C@@H](c2cccc(NC(=O)CCCCNC(=O)[C@H](OC(C)=O)[C@@H](OC(C)=O)[C@H](OC(C)=O)[C@@H](COC(C)=O)OC(C)=O)c2)[C@H]1O` [Example 8], the ED (200% of control) turned out to be 0.007 mg/kg/day.

As to `CCCC[C@]1(CC)CS(=O)(=O)c2ccc(N(C)C)cc2[C@@H](c2cccc(NC(=O)CCCCNC[C@H](O)[C@@H](O)[C@H](O)[C@H](O)CO)c2)[C@H]1O` [Example 3], the ED200 excretion was determined as 0.04 mg/kg/day. With `CCCC[C@]1(CC)CS(=O)(=O)c2ccc(N(C)C)cc2[C@@H](c2cccc(NC(=O)CCCC[N+](CC)(CC)CC)c2)[C@H]1O` [Comparison Example 3, reference compound], the ED (200% of control) came out at 0.9 mg/kg/day. Still for that read-out and setting: for `CCCC[C@]1(CC)CS(=O)(=O)c2ccc(N(C)C)cc2[C@@H](c2cccc(NC(=O)[C@H](O)[C@@H](O)[C@H](O)[C@H](O)CO)c2)[C@H]1O` [Example 1] the value was 0.009 mg/kg/day; for `CCCCC1(CCCC)CS(=O)(=O)c2ccc(N(C)C)cc2[C@@H](c2cccc(NC(=O)[C@H](O)[C@@H](O)[C@H](O)[C@H](O)CO)c2)[C@H]1O` [Example 7], 0.04 mg/kg/day; for `CCCC[C@]1(CC)CS(=O)(=O)c2ccc(N(C)C)cc2[C@@H](c2cccc(NC(=O)CCCCNC(=O)[C@H](O)[C@@H](O)[C@H](O)[C@H](O)CO)c2)[C@H]1O` [Example 9], 0.007 mg/kg/day.

On to `CCCC[C@]1(CC)CS(=O)(=O)c2ccc(N(C)C)cc2[C@@H](c2cccc(NC(=O)CCCCN(C[C@H](OC(C)=O)[C@@H](OC(C)=O)[C@H](OC(C)=O)[C@@H](COC(C)=O)OC(C)=O)C(C)=O)c2)[C@H]1O` [Example 10], for which the ED (200% of control) was found to be 0.04 mg/kg/day. As to `CCCC[C@]1(CC)CS(=O)(=O)c2ccc(N(C)C)cc2[C@@H](c2cccc(NC(=O)CCCCNC[C@H](O)[C@@H](O)[C@H](O)[C@H](O)CO)c2)[C@H]1O` [3 (pure structure 11a)], the ED200 excretion was 0.008 mg/kg/day.
